Consider 26 compounds from patent US20240150345A1, “GCN2 MODULATING COMPOUNDS AND USES THEREOF” (HiberCell, Inc., priority 2021, published 2024).

Each structure is given as a SMILES string. pIC50: −log10 of the molar value. Bounds are passed on as bounds.

The target in this assay is T1, GCN2 (Homo sapiens, UniProt Q9P2K8).
T1 construct: purchased Carma Biosciences (so in the source)
T1 sequence (Q9P2K8 whole entry): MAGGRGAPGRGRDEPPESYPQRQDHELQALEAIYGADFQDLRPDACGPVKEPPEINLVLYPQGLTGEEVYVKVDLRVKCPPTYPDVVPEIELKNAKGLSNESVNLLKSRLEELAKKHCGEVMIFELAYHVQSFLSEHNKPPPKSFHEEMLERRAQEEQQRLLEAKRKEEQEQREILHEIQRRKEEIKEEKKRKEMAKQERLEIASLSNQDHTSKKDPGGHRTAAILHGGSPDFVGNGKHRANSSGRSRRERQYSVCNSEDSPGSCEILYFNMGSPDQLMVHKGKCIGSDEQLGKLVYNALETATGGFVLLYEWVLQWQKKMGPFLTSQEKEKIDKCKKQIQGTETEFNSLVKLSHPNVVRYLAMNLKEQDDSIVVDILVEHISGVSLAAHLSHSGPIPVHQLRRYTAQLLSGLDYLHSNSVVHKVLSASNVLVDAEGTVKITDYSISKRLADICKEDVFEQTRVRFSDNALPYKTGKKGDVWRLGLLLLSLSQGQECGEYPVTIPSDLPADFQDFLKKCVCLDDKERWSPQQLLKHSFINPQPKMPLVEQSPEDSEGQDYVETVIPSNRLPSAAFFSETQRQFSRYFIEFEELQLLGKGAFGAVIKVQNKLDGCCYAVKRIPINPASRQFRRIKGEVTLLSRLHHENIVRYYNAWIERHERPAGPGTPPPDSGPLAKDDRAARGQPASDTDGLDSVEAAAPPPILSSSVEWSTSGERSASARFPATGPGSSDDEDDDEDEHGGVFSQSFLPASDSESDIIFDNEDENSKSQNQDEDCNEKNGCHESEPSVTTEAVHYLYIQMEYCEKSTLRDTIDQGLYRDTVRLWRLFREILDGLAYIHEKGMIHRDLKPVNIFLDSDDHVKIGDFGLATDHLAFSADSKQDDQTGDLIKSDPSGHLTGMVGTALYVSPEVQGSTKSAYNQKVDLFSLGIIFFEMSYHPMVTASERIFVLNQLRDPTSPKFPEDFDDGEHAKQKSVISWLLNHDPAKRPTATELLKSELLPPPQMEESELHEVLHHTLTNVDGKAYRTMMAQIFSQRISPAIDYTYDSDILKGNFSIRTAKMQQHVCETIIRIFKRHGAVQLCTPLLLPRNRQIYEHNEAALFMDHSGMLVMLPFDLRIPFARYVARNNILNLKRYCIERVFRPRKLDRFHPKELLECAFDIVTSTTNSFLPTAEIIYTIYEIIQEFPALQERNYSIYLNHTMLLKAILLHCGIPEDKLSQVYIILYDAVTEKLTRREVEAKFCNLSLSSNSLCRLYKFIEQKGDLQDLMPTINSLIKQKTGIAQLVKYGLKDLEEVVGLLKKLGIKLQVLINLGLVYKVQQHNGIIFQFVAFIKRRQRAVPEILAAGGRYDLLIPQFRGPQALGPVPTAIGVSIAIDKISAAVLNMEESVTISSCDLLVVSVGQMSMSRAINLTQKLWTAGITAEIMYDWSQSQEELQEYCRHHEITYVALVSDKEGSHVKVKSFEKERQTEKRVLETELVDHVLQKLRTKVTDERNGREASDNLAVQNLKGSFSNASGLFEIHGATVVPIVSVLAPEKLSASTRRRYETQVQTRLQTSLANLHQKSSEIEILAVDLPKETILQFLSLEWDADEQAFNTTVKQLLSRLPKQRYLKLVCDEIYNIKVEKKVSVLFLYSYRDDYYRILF
Put plainly: TR-FRET biochemical assay for inhibition of GCN2 activity. As to conditions: 2 nM GCN2, 100 nM GFP-eIF2α, 150 μM ATP, 1.5 hours at 25° C. The method, then: Exemplary compounds from the above Examples were tested for ability to inhibit GCN2 activity using a time resolved fluorescence energy transfer (TR-FRET) assay. Assay procedures and results are described below for Examples 12-105.
GCN2 protein was obtained from Carma Biosciences (cat #05-153). The protein was diluted in assay buffer (ThermoFisher Scientific, #PV6135), 2 mM dithiothreitol (DTT), to obtain a final concentration of 2 nM and 5 μL was plated in a 384-well white assay plate. Test compounds were serially diluted to 11 concentrations by 3-fold dilution in DMS0 and 10 nL of stock was plated into 384 well white assay plate. DMS0 was used as a vehicle control. GFP-eIF2α protein was obtained from ThermoFisher (cat #PV4809). The protein was diluted in assay buffer to a 2× concentration of 200 nM along with 300 μM ATP (final concentration of 100 nM GFP-eIF2α and 150 μM ATP) in the presence of 2 mM DTT and a […] was added to each well containing the GCN2 protein and test compound. The plate was incubated in the dark at 25° C. for 1.5 hours, shaking at 1250 rpm. Tb-anti P-eIF2α (ThermoFisher cat #PV4815) was diluted to a to a concentration of 1 nM in TR-FRET Dilution Buffer (ThermoFisher cat #PV3574). 10 μL of the Tb-anti P-eIF2a solution was added to the TR-FRET reaction. The plate was incubated in the dark for 2 h at 25° C. shaking at 600 rpm. The FRET signal from the plate was read on a Envision (PerkinElmer) plate reader: • Label 1: Excitation: 340 nm, bandwidth 30 nm; Emission: 495 nm, bandwidth 10 nm. Lag time: 100 μsec. Integration time: 400 μsec. Flashes: 30. • Label 2: Excitation: 340 nm, bandwidth 30 nm; Emission: 520 nm, bandwidth 25 nm. Lag time: 100 μsec. Integration time: 400 μsec. Flashes: 30
The data were analyzed using GraphPad Prism employing a 4-parameter sigmoidal curve fit.
In general terms: TR-FRET usually uses a lanthanide donor and a delayed reading to cut background.
Turning to `COc1ncc(F)cc1S(=O)(=O)Nc1ncc(F)c(COc2cnc3[nH]nc(C)c3c2)c1F` [Compound 56, N-[3,5-difluoro-4-[([3-methyl-1H-pyrazolo[3,4-b]pyridin-5-yl]oxy)methyl]pyridin-2-yl]-5-fluoro-2-methoxypyridine-3-sulfonamide], the negative-log IC50 (pIC50) (in general, −log10 of the IC50, conventionally taken in molar units) was more than 7.30. The result for `COc1ncc(Cl)cc1S(=O)(=O)Nc1ccc(F)c(COc2cnc3[nH]ncc3c2)c1F` [Compound 1, 5-chloro-N-[2,4-difluoro-3-([1H-pyrazolo[3,4-b]pyridin-5-yloxy]methyl)phenyl]-2-methoxypyridine-3-sulfonamide] reads more than 7.30; that for `N#Cc1cc(C(F)(F)F)cc(S(=O)(=O)Nc2ccc(F)c(CCc3cnc4[nH]ncc4c3)c2F)c1` [Compound 16, 3-cyano-N-[2,4-difluoro-3-(2-[1H-pyrazolo[3,4-b]pyridin-5-yl]ethyl)phenyl]-5-(trifluoromethyl)benzenesulfonamide], 6.30 to 7.30; that for `CCc1n[nH]c2ncc(OCc3c(F)ccc(NS(=O)(=O)c4cc(F)cnc4OC)c3F)cc12` [Compound 39, N-[3-[([3-ethyl-1H-pyrazolo[3,4-b]pyridin-5-yl]oxy)methyl]-2,4-difluorophenyl]-5-fluoro-2-methoxypyridine-3-sulfonamide], more than 7.30. Compound `COc1ncc(Cl)cc1S(=O)(=O)Nc1ccc(F)c(CCc2ccc3[nH]ncc3n2)c1F` [Compound 11, 5-chloro-N-[2,4-difluoro-3-(2-[1H-pyrazolo[4,3-b]pyridin-5-yl]ethyl)phenyl]-2-methoxypyridine-3-sulfonamide] had a pIC50 of less than 6.00.

Turning to `CCc1n[nH]c2ncc(OCc3c(F)ccc(NS(=O)(=O)c4cc(F)cnc4C)c3F)cc12` [Compound 47, N-[3-[([3-ethyl-1H-pyrazolo[3,4-b]pyridin-5-yl]oxy)methyl]-2,4-difluorophenyl]-5-fluoro-2-methylpyridine-3-sulfonamide], the pIC50 is more than 7.30. With `COc1ncc(F)cc1S(=O)(=O)Nc1ccc(F)c(COc2cnc3[nH]nc(C)c3c2C2CCN(C)CC2)c1F` [Compound 93, N-(2,4-difluoro-3-(((3-methyl-4-(1-methylpiperidin-4-yl)-1H-pyrazolo[3,4-b]pyridin-5-yl)oxy)methyl)phenyl)-5-fluoro-2-methoxypyridine-3-sulfonamide], the pIC50 is less than 6.00.

For `COc1ncc(F)cc1S(=O)(=O)Nc1ccc(F)c(NCc2cnc3[nH]nc(C)c3c2)c1F` [Compound 57, N-[2,4-difluoro-3-[([3-methyl-1H-pyrazolo[3,4-b]pyridin-5-yl]methyl)amino]phenyl]-5-fluoro-2-methoxypyridine-3-sulfonamide], the pIC50 was 6.30 to 7.30. Compound `COc1ncc(F)cc1S(=O)(=O)Nc1ccc(F)c(COc2cnc3c(c2)C2(CC2)C(=O)N3)c1F` [Compound 72, N-[2,4-difluoro-3-([2-oxo-1H-spiro[cyclopropane-1,3-pyrrolo[2,3-b]pyridin]-5-yloxy]methyl)phenyl]-5-fluoro-2-methoxypyridine-3-sulfonamide] gave a pIC50 of more than 7.30.

Compound `COc1ncc(C#N)cc1S(=O)(=O)Nc1ccc(F)c(COc2cnc3[nH]nc(C(C)C)c3c2)c1F` [Compound 55, 5-cyano-N-[2,4-difluoro-3-[([3-isopropyl-1H-pyrazolo[3,4-b]pyridin-5-yl]oxy)methyl]phenyl]-2-methoxypyridine-3-sulfonamide] had a pIC50 of 6.30 to 7.30. Next, `COc1ncc(F)cc1S(=O)(=O)Nc1ccc(F)c(COc2cnc3[nH]nc(C)c3c2C(C)C)c1F` [Compound 88, N-[2,4-difluoro-3-[([4-isopropyl-3-methyl-1H-pyrazolo[3,4-b]pyridin-5-yl]oxy)methyl]phenyl]-5-fluoro-2-methoxypyridine-3-sulfonamide]: less than 6.00; `COc1ncc(Cl)cc1S(=O)(=O)Nc1ncc(F)c(COc2cnc3[nH]nc(C)c3c2)c1Cl` [Compound 79, 5-chloro-N-[3-chloro-5-fluoro-4-[([3-methyl-1H-pyrazolo[3,4-b]pyridin-5-yl]oxy)methyl]pyridin-2-yl]-2-methoxypyridine-3-sulfonamide]: more than 7.30. The compound `COc1ncc(C#N)cc1S(=O)(=O)Nc1ccc(F)c(CCc2cnc3[nH]ncc3c2)c1F` [Compound 10, 5-cyano-N-[2,4-difluoro-3-(2-[1H-pyrazolo[3,4-b]pyridin-5-yl]ethyl)phenyl]-2-methoxypyridine-3-sulfonamide] gave a pIC50 of more than 7.30. As to `COc1ncc(F)cc1S(=O)(=O)Nc1ccc(F)c(COc2cnc3[nH]nc(CCF)c3c2)c1F` [Compound 76, N-[2,4-difluoro-3-([[3-(2-fluoroethyl)-1H-pyrazolo[3,4-b]pyridin-5-yl]oxy]methyl)phenyl]-5-fluoro-2-methoxypyridine-3-sulfonamide], the pIC50 is more than 7.30. Next, `COc1ncc(F)cc1S(=O)(=O)Nc1ccc(F)c(COc2cnc3[nH]nc(C)c3c2N2CCCCC2)c1F` [Compound 94, N-(2,4-difluoro-3-(((3-methyl-4-(piperidin-1-yl)-1H-pyrazolo[3,4-b]pyridin-5-yl)oxy)methyl)phenyl)-5-fluoro-2-methoxypyridine-3-sulfonamide]: 6.30 to 7.30; `COc1ncc(F)cc1S(=O)(=O)Nc1ccc(F)c(COc2cnc3[nH]nc(C)c3c2)n1` [Compound 67, 5-fluoro-N-[5-fluoro-6-[([3-methyl-1H-pyrazolo[3,4-b]pyridin-5-yl]oxy)methyl]pyridine-2-yl]-2-methoxypyridine-3-sulfonamide]: less than 6.00; `COc1ncc(Cl)cc1S(=O)(=O)Nc1ccc(F)c(CCc2cnc3cnn(C(C)C)c3c2)c1F` [Compound 35, 5-chloro-N-[2,4-difluoro-3-(2-[1-isopropylpyrazolo[4,3-b]pyridin-6-yl]ethyl)phenyl]-2-methoxypyridine-3-sulfonamide]: more than 7.30. Next, `COc1ncc(F)cc1S(=O)(=O)Nc1ccc(F)c(COc2cnc3[nH]nc(C(C)(F)F)c3c2)c1F` [Compound 81, N-[3-([[3-(1,1-difluoroethyl)-1H-pyrazolo[3,4-b]pyridin-5-yl]oxy]methyl)-2,4-difluorophenyl]-5-fluoro-2-methoxypyridine-3-sulfonamide]: more than 7.30. Next, `COc1ncc(F)cc1S(=O)(=O)Nc1ccc(F)c(COc2cnn3cnc(C)c3c2)c1F` [Compound 82, N-[2,4-difluoro-3-[([5-methylimidazo[1,5-b]pyridazin-3-yl]oxy)methyl]phenyl]-5-fluoro-2-methoxypyridine-3-sulfonamide]: more than 7.30; `COc1ncc(F)cc1S(=O)(=O)Nc1ccc(F)c(COc2cnc3[nH]nc(C)c3c2-c2ccccn2)c1F` [Compound 90, N-[2,4-difluoro-3-([[3-methyl-4-(pyridin-2-yl)-1H-pyrazolo[3,4-b]pyridin-5-yl]oxy]methyl)phenyl]-5-fluoro-2-methoxypyridine-3-sulfonamide]: 6.30 to 7.30. The compound `Cc1ncc(F)cc1S(=O)(=O)Nc1ccc(F)c(COc2cnc3[nH]nc(C)c3c2)c1Cl` [Compound 74, N-[2-chloro-4-fluoro-3-[([3-methyl-1H-pyrazolo[3,4-b]pyridin-5-yl]oxy)methyl]phenyl]-5-fluoro-2-methylpyridine-3-sulfonamide] showed a negative logarithm of the IC50 (pIC50) of more than 7.30. Regarding `COc1ncc(Cl)cc1S(=O)(=O)Nc1ccc(F)c(OCc2cnc3[nH]nc(C)c3c2)c1F` [Compound 46, 5-chloro-N-[2,4-difluoro-3-([3-methyl-1H-pyrazolo[3,4-b]pyridin-5-yl]methoxy)phenyl]-2-methoxypyridine-3-sulfonamide], the pIC50 is more than 7.30. `COc1ncc(Cl)cc1S(=O)(=O)Nc1ccc(F)c(CCc2cnc3cnn(C)c3c2)c1F` [Compound 18, 5-chloro-N-[2,4-difluoro-3-(2-[1-methylpyrazolo[4,3-b]pyridin-6-yl]ethyl)phenyl]-2-methoxypyridine-3-sulfonamide] gave a pIC50 of more than 7.30. On to `COc1ncc(Cl)cc1S(=O)(=O)Nc1ccc(F)c(CCc2ccn3cncc3c2)c1F` [Compound 19, 5-chloro-N-[2,4-difluoro-3-(2-[imidazo[1,5-a]pyridin-7-yl]ethyl)phenyl]-2-methoxypyridine-3-sulfonamide], for which the pIC50 is less than 6.00.

The compound `COc1ncc(F)cc1S(=O)(=O)Nc1ncc(F)c(COc2cnc3[nH]nc(C)c3c2)c1Cl` [Compound 66, N-[3-chloro-5-fluoro-4-[([3-methyl-1H-pyrazolo[3,4-b]pyridin-5-yl]oxy)methyl]pyridin-2-yl]-5-fluoro-2-methoxypyridine-3-sulfonamide] showed a pIC50 of more than 7.30. `COc1ncc(F)cc1S(=O)(=O)Nc1ccc(F)c(COc2cnc3[nH]nc(C)c3c2)c1Cl` [Compound 61, N-[2-chloro-4-fluoro-3-[([3-methyl-1H-pyrazolo[3,4-b]pyridin-5-yl]oxy)methyl]phenyl]-5-fluoro-2-methoxypyridine-3-sulfonamide]: the pIC50 is more than 7.30.
